Assay results published in ChEMBL document CHEMBL4507319 (2021).

How the values were obtained:
[1] = molecular target: Activated CDC42 kinase 1 (Homo sapiens) (UniProt Q07912); assay: ACK1(h) Eurofins kinase panel; settings: Compound concentration 1.0 uM
[2] = molecular target: T1, Activin receptor type-1B (Homo sapiens) (UniProt P36896); assay: ALK4(h) Eurofins kinase panel; settings: Compound concentration 1.0 uM
T1 sequence (whole entry): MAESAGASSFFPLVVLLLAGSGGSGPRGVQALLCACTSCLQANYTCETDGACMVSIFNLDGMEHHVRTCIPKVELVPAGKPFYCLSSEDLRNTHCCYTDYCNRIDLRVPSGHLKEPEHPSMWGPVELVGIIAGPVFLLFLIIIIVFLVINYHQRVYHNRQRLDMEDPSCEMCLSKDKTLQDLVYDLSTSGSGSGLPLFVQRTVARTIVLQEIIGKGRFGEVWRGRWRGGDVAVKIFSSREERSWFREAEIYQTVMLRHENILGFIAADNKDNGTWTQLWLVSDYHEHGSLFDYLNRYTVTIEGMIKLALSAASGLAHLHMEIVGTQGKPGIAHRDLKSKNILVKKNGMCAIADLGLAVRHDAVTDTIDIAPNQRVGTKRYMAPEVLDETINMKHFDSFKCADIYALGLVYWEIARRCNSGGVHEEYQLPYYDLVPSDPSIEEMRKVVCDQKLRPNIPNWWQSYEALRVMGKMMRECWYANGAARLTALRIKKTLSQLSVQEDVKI

[3] = molecular target: Tyrosine-protein kinase ABL2 (Homo sapiens) (UniProt P42684); assay: Arg(h) Eurofins kinase panel; settings: Compound concentration 1.0 uM
[4] = molecular target: T2, NUAK family SNF1-like kinase 1 (Homo sapiens) (UniProt O60285); assay: ARK5(h) Eurofins kinase panel; settings: Compound concentration 1.0 uM
T2 sequence (whole entry): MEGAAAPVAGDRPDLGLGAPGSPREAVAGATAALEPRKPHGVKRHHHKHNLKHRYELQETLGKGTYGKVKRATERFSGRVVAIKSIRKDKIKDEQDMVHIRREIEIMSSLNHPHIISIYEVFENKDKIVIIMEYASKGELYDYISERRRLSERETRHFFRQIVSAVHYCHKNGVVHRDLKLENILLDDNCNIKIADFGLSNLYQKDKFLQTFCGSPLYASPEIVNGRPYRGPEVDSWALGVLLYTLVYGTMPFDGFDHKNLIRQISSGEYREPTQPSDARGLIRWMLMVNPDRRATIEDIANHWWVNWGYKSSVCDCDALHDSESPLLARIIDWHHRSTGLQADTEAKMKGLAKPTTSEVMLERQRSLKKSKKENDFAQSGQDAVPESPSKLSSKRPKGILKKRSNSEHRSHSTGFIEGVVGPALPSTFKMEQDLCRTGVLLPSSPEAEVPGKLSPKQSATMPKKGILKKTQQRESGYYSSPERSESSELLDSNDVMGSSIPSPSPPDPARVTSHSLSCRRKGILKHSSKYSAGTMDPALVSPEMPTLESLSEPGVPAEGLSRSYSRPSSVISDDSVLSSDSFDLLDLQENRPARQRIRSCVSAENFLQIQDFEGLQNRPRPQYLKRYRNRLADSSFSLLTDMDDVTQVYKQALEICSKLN

[5] = molecular target: Eukaryotic translation initiation factor 2-alpha kinase 1 (Homo sapiens) (UniProt Q9BQI3); assay: HRI(h) Eurofins kinase panel; settings: Compound concentration 1.0 uM
[6] = molecular target: T3, Serine/threonine-protein kinase ICK (Homo sapiens) (UniProt Q9UPZ9); assay: ICK(h) Eurofins kinase panel; settings: Compound concentration 1.0 uM
T3 sequence (whole entry): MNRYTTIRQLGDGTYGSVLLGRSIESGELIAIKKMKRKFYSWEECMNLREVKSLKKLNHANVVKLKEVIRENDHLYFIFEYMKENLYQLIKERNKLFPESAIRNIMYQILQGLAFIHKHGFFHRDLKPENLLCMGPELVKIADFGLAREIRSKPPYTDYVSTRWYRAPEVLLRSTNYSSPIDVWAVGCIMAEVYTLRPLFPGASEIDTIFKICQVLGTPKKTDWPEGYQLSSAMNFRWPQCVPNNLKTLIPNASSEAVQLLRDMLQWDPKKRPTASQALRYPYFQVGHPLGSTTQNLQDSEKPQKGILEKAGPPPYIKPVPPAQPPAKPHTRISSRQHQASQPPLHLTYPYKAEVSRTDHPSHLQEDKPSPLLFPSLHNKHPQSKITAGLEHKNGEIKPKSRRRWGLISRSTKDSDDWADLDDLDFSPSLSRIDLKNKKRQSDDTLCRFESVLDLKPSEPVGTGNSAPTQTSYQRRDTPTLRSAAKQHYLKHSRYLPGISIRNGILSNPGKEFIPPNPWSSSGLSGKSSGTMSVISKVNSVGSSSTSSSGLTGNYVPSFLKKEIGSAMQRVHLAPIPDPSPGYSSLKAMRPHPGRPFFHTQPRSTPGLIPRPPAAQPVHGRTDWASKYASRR

[7] = molecular target: Insulin receptor (Homo sapiens) (UniProt P06213); assay: IR(h), activated Eurofins kinase panel; settings: Compound concentration 1.0 uM
Insulin receptor (Homo sapiens), sequence (P06213 28-758 limits assumed): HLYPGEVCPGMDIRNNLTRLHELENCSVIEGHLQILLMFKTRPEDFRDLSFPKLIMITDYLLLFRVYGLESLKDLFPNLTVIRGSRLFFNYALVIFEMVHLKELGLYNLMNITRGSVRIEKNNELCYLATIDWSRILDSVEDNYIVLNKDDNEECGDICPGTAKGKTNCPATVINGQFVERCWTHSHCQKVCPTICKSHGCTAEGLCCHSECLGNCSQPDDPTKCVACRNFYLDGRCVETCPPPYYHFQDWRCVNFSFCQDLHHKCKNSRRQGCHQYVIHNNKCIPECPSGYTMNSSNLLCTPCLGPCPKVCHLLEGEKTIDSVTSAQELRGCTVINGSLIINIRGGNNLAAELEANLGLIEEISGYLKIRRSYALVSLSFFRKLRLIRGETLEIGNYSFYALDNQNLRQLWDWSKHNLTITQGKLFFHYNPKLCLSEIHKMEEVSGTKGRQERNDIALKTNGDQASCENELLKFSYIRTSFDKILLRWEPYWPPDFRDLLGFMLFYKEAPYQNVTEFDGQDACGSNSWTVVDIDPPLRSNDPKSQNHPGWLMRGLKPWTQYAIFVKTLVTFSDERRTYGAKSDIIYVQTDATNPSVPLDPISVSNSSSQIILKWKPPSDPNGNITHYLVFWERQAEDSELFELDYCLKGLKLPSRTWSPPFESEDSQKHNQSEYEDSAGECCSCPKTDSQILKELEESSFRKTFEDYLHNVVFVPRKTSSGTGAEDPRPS
Insulin receptor (Homo sapiens), sequence (P06213 763-1382 limits assumed): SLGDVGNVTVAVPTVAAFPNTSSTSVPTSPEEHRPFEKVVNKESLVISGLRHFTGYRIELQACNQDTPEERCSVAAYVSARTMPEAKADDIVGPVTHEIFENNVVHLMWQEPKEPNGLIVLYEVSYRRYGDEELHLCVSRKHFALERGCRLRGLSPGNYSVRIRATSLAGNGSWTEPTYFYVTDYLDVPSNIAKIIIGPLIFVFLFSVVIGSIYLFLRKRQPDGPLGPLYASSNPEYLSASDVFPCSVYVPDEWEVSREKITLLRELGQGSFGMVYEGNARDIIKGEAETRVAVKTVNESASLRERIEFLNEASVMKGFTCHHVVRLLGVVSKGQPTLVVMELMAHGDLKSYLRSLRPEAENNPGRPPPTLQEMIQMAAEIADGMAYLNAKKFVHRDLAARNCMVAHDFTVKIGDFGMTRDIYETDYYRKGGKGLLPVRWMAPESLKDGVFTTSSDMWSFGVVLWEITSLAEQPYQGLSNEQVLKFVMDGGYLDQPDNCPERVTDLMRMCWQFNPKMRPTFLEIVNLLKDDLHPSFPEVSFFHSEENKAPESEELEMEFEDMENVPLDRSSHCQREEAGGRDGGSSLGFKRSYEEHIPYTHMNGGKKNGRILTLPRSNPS

[8] = molecular target: Serine/threonine-protein kinase 10 (Homo sapiens) (UniProt O94804); assay: LOK(h) Eurofins kinase panel; settings: Compound concentration 1.0 uM
Serine/threonine-protein kinase 10 (Homo sapiens), sequence (O94804 whole entry, looked up): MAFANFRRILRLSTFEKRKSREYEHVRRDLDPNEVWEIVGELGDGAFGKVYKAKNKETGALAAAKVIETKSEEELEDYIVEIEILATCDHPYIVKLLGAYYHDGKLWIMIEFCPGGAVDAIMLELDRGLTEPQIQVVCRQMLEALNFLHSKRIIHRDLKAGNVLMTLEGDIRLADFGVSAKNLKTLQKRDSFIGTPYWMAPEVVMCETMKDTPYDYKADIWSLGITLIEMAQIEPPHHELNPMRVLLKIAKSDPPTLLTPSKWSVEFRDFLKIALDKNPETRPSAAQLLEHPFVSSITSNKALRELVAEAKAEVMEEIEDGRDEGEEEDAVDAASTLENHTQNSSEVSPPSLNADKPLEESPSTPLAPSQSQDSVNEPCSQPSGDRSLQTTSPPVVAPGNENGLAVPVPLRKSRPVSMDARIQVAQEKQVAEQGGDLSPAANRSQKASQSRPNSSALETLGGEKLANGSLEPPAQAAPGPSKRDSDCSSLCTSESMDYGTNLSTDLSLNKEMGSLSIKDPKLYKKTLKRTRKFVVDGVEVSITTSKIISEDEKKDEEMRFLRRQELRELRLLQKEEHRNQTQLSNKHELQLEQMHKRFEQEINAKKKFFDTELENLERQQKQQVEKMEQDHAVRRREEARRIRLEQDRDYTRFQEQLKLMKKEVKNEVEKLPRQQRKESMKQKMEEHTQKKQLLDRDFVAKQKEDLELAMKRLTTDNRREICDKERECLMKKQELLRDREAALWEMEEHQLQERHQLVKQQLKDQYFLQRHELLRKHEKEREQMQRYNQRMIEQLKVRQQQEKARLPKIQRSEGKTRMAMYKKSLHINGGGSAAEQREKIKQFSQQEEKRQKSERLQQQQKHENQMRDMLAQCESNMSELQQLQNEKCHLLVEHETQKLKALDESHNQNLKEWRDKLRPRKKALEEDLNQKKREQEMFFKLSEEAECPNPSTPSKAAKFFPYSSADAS

[9] = molecular target: Serine/threonine-protein kinase N2 (Homo sapiens) (UniProt Q16513); assay: PRK2(h) Eurofins kinase panel; settings: Compound concentration 1.0 uM
Serine/threonine-protein kinase N2 (Homo sapiens), sequence (Q16513 whole entry, looked up): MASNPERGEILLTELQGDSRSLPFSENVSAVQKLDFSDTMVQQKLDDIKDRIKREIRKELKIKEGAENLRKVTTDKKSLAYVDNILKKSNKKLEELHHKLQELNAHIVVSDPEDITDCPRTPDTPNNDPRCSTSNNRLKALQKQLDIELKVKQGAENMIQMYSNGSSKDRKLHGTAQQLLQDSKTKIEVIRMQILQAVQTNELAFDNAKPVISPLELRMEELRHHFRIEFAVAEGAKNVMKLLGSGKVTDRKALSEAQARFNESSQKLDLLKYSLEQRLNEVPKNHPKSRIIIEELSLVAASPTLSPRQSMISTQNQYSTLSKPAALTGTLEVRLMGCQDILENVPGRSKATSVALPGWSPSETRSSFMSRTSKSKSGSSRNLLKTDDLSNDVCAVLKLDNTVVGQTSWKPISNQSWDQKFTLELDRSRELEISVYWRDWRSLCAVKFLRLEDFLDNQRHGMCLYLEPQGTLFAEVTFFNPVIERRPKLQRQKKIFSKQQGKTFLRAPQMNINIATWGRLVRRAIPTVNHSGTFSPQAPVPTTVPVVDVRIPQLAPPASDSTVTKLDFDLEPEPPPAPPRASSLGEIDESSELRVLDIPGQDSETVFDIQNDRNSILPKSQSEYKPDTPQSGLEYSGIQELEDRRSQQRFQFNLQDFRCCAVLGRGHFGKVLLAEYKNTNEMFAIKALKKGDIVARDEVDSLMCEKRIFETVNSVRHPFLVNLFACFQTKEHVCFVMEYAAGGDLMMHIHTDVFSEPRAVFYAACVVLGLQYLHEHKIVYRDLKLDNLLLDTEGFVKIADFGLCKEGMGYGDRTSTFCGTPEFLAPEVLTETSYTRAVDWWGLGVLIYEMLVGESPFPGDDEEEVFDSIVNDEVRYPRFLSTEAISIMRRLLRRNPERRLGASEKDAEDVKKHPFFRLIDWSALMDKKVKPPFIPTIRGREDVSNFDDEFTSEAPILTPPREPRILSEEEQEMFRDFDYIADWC

[10] = molecular target: Serine/threonine-protein kinase SIK2 (Homo sapiens) (UniProt Q9H0K1); assay: SIK2(h) Eurofins kinase panel; settings: Compound concentration 1.0 uM
[11] = molecular target: High affinity nerve growth factor receptor (Homo sapiens) (UniProt P04629); assay: TrkA(h) Eurofins kinase panel; settings: Compound concentration 1.0 uM
High affinity nerve growth factor receptor (Homo sapiens), sequence (P04629 33-796 limits assumed): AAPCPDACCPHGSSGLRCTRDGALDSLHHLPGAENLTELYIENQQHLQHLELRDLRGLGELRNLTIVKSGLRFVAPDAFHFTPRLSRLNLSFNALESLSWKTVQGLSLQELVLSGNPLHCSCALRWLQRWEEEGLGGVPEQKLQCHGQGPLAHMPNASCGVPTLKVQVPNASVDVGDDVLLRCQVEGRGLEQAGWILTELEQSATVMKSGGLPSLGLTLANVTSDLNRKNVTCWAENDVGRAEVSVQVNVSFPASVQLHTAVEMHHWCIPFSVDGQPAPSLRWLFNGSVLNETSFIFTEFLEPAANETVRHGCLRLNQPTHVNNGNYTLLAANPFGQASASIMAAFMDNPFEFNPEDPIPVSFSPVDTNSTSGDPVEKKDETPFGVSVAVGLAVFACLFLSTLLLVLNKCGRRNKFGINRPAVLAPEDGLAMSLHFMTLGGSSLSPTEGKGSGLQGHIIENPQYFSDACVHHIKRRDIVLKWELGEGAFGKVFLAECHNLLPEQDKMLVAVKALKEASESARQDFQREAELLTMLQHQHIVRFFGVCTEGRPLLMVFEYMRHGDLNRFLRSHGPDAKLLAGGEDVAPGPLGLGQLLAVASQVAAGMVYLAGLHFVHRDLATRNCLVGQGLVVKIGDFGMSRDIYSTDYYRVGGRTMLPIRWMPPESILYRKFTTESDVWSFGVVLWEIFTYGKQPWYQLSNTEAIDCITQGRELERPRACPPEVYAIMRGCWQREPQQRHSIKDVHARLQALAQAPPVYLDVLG

[12] = molecular target: NT-3 growth factor receptor (Homo sapiens) (UniProt Q16288); assay: TrkC(h) Eurofins kinase panel; settings: Compound concentration 1.0 uM
NT-3 growth factor receptor (Homo sapiens), sequence (Q16288 32-839 limits assumed): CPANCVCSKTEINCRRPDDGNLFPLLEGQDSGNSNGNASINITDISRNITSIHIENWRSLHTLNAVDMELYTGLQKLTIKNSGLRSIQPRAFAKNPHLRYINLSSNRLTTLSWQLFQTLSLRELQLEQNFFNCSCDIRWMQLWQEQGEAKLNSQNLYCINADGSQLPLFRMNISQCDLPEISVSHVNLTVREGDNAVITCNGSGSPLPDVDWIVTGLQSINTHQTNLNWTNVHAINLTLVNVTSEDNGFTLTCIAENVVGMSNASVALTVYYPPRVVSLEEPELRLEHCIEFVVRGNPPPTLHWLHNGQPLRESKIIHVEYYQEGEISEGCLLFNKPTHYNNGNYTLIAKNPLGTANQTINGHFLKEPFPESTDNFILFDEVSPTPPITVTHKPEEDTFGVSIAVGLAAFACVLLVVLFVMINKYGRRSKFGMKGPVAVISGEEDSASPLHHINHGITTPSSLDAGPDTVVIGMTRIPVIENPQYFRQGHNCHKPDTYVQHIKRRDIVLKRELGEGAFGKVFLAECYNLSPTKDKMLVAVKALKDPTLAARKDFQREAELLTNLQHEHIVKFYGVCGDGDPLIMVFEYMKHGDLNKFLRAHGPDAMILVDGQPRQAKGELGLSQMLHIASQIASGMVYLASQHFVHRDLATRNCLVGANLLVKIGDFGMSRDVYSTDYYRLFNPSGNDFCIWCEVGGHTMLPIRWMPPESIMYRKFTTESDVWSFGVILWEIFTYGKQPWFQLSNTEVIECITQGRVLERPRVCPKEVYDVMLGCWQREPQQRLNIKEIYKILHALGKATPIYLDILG

[13] = molecular target: T4, Tyrosine-protein kinase ZAP-70 (Homo sapiens) (UniProt P43403); assay: ZAP-70(h) Eurofins kinase panel; settings: Compound concentration 1.0 uM
T4 sequence (whole entry): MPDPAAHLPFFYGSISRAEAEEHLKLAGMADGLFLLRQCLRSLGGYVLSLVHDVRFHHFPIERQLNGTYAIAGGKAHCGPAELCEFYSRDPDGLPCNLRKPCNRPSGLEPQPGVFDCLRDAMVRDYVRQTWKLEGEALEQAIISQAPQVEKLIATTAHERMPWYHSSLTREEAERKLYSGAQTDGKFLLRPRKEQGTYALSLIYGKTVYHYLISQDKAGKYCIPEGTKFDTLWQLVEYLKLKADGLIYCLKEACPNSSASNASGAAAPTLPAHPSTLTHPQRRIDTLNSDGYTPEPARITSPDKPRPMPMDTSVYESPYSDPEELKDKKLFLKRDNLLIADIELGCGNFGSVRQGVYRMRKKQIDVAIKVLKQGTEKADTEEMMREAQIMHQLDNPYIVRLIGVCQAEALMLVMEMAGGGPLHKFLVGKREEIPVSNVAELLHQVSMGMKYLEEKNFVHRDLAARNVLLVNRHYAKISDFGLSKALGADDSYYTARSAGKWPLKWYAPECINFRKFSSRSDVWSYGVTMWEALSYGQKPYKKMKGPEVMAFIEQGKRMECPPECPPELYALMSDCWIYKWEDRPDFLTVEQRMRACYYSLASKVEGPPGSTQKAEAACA

[14] = system: DU-145; assay: DU-145 cell line Proliferation assay; format: functional, Homo sapiens; settings: time 6 day

CCc1ccccc1C(=O)Nc1n[nH]c2c(C)c(F)c(C3C(C#N)=C(C)N(C)C(C)=C3C#N)cc12 [BAY-3827]
% residual kinase activity [1]: 94%
% residual kinase activity [2]: 90%
% residual kinase activity [3]: 101%
% residual kinase activity [4]: 21%
% residual kinase activity [5]: 100%
% residual kinase activity [6]: 99%
% residual kinase activity [7]: 89%
% residual kinase activity [8]: 88%
% residual kinase activity [9]: 93%
% residual kinase activity [10]: 68%
% residual kinase activity [11]: 60%
% residual kinase activity [12]: 133%
% residual kinase activity [13]: 119%
Cell Proliferation IC50 [14]: >10 µM
